According to patent US10857112B2, “Small molecule inhibitors of RNA binding motif (RBM) proteins for the treatment of acute cellular injury” (University of Pittsburgh—Of the Commonwealth System of …, priority 2012, dated 2020):

What was measured:
[1] = system: mice; details: IP 100, 200 or 400 mg/kg; cited from earlier work
[2] = system: primary rat cortical neurons; assay: H2O2 injury, neuronal viability 24 h (CellTiter-Blue); details: 40 μM H2O2
[3] = system: primary rat cortical neurons; assay: Ischemia (OGD) injury, neuron viability; type: cell-based; details: 1 hour OGD; 75 μM during and after injury; 24 hours
Procedure: AQ2S was dissolved in 100% DMSO (vehicle). Rat cortical neurons were isolated from E17 embryos, and seeded onto 96-well plates at a density of 7.5×10^4/well. At D.I.V. 10-11 culture maintenance media was replaced with treatment media (Modified Eagles Buffered Solution) without or with 25 μM Glucose. In addition, neurons were incubated with or without oxygen (induced by placement of cell plates in an anoxic chamber flushed with a gas mixture to remove oxygen). OGD injury was administered for 1 hour. […] Neuron viability was measured 24 hours post-injury by incubation with CellTiter Blue reagent (PROMEGA) for 3.5 hours. CellTiter Blue is metabolized into a fluorescent reagent only in living cells. The level of fluorescence (expressed as relative fluorescent units; RFU) was measured on a plate reader (PROMEGA).
Primary rat cortical neurons were grown onto 96-well plates. Neurons were injured by a 1 hour treatment with/without 25 μM glucose and with/without oxygen. DMSO or 75 μM AQ2S were added to OGD treatment media during the 1 h ischemic injury period. After 1 hour injury, cells were returned to regular growth media and normoxic culture conditions (i.e. 95% […]/5% CO2) with either DMSO or 75 μM AQ2S. Cell viability was measured 24 hours later and expressed as relative fluorescent units (RFU). […] Data were analyzed by ANOVA (p<0.0001); Fisher LSD post-hoc test. * indicates p<0.05. […]

[4] = system: primary rat cortical neurons; assay: Glutamate excitotoxic injury, neuron viability; type: cell-based; details: 5 μM glutamate 5 minute; post-injury 125 μM; 24 hours
Procedure: Drugs (AQ2S and MK801) were dissolved in 100% DMSO (vehicle). Rat cortical neurons were isolated from E17 embryos, and seeded onto 96-well plates at a density of 1.5×10^5/well. At day-in-vitro 8 (D.I.V. 8) culture maintenance media was replaced with treatment media (Modified Eagles Buffered Solution) without or with 5 μM Glutamate. After a 5 minute injury in treatment solution, cells were returned to normal culture maintenance media conditions (Neurobasal/B27 supplement) with either: 1) DMSO, 2) 125 μM AQ2S or 3) MK801; MK801 is an NMDA receptor channel blocker and classic neuroprotectant in this injury paradigm. Neuron viability was measured 24 hours post-injury by incubation with CellTiter Blue reagent (PROMEGA) for 2 hours. CellTiter Blue is metabolized into a fluorescent reagent only in living cells. The level of fluorescence (expressed as relative fluorescent units; RFU) was measured on a plate reader (PROMEGA).
Primary rat cortical neurons were grown onto 96-well plates. Neurons were treated with or without 5 μM glutamate. Cells were returned to regular growth media with DMSO, 125 μM AQ2S, or MK801 and viability measured 24 hours later (expressed as relative fluorescent units; RFU). […] Injury (n=7), Glut+AQ2S (n=7) and Glut+MK-801 (n=6). White bar indicated absence of glutamate injury. […] Data were analyzed by ANOVA (p<0.0001); Fisher LSD post-hoc test. * indicates p<0.05. […]

[5] = system: primary rat neurons, astrocytes, and cerebral endothelial cells; details: cited from earlier work
[6] = system: primary rat cortical neurons; assay: STS injury, neuronal viability and cytotoxicity
Procedure: At D.I.V. 11, ½ media was collected (conditioned media) and mixed with an equal volume fresh neurobasal media (to make the 24 hour treatment media). STS was prepared at the desired concentration in treatment media, with or without experimental drugs (AQ2S or LY294002). The remaining growth maintenance media was replaced with 100 μL, of treatment media per well of a 96-well plate (or 2 mL for a six-well plate) for 24 hours.
The LDH Cytotoxicity Assay Kit II was purchased from Abcam (Cambridge, Mass., USA). Neurons were cultured in 96-well format and subjected to STS injury ±AQ2S for 24 hours (in 100 μL, total media volume). At 23 hours maximum LDH release (positive control) was prepared by adding 10 μL, cell lysis reagent directly to a few non-injured wells (i.e., no STS or AQ2S). At the end of the 24 hour injury period, 80 μL, of media was transferred to a new 96-well plate. Plates were spun at ˜500 g for 5 minutes. 10 μL, of cell culture treatment media was added to a new black-walled plate and advanced WST detection reagent added. The mix was incubated for ˜15 minutes and absorbance measured (OD 450 nm). Fresh culture media was used as a negative control. Cytotoxicity was calculated using the standard formula: cytotoxicity %=(sample LDH−negative-control LDH)/(maximum LDH release−negative-control LDH)×100.

[7] = system: AKT; assay: Western blot of AKT activation (pAKT473); type: cell-based, rat
Procedure: AKT is a key pro-survival kinase that is dysregulated by acute brain injury. Many diverse therapies used to prevent neuronal death activate AKT, including small molecules, endogenously derived survival proteins, and other non-pharmacology based treatments like therapeutic hypothermia. To further elucidate the mechanisms of AQ2S-mediated neuroprotection, the level of activated (phosphorylated) AKT was measured by western blot.
Neurons used for Western blot analysis for grown in 6-well plates. Briefly, neurons were treated with experimental compounds for the indicated time/conditions. At the end of each experiment, neurons were washed in ice cold PBS and harvested in 65 μL RIPA buffer containing protease inhibitors, phosphatase inhibitors, and EDTA. Extracts were collected in 0.5 mL tubes and sonicated for 20-30 seconds. Cell extracts were then spun at 4° C./16,000 g/10 minutes and stored at −80° C. until use. Frozen extracts were thawed on ice and protein concentration measured using the BCA assay (PIERCE). […] of sample protein was loaded per well of a 7.5% SDS precast gel (Biorad), and run for 30 minutes to 1 hour at 200 V. Kaleidoscope protein standards (Biorad) were run parallel to neuron extracts. Proteins were then transferred to PDVF membranes (run at 100 V/4° C./1.5 hours). PDVF membranes were washed once in tris buffered saline (TBS) and blocked for 1 hour in tris buffered saline/tween-20 with 7.5% nonfat milk (TBS-T/milk). Blots were incubated overnight at 4° C. with primary antibodies in TBS-T/milk. Cell Signaling Technology: phospho-AKT473, AKT Total, phospho-ERK1/2, ERK Total, cleavage caspase-3. Santa Cruz Antibodies: NF-κB p50 subunit, NF-κB p65 subunit, and beta actin. Calbiochem: 4-HNE antibody. Blots were washed 3 times (5 minutes each) with TBS, and incubated with secondary antibodies for 2 hours. Invitrogen: goat anti-rabbit or goat anti-mouse. Blots were washed 3 times (5 minutes each) with TBS, and incubated for 1 minute in HRP detection solution (Amersham). Films were exposed to blots and developed (SRX-101A, Konica Minolta Medical & Graphic Inc.). Re-probed blots (e.g. beta actin, AKT total, ERK total) were stripped in western blot stripping buffer (Fischer Scientific) for 10 minutes, washed once with TBS, re-blocked in TBS-T/milk for 1 hour, and incubated overnight with new primary antibody. Films were scanned (EPSON GT 20,000), and densitometry performed using UN-SCAN-IT software (Silk Scientific).

[8] = 150 nM STS 24 hours, co-treatment 75 μM

SMILES: O=C1c2ccccc2C(=O)c2cc(S(=O)(=O)O)ccc21 [AQ2S, anthraquinone-2-sulfonic acid]
- survival [1]: all animals survived to toxicology day 5
- tumor formation [1]: did not inhibit tumor formation
- neuronal death after H2O2 injury ([2]; post-treatment 50 μM, 24 h): significantly reduced H2O2 induced cell death
- neuronal death after H2O2 injury ([2]; post-treatment 75 μM, 24 h after injury): potently prevented cell death
- viability after ischemic (OGD) injury [3]: significantly increases viability
- viability after glutamate injury [4]: significantly protects neurons from glutamate induced cell death
- superoxide anion (O2^−) levels ([5]; 980 μM, over 60 minute): significantly upregulated superoxide anion (O2^−) levels
- toxicity ([5]; 980 μM): lack of toxicity
- cell viability ([5]; 5000 μM): 50%
- STS injury, LDH release [6, 8]: significantly reduced 24 hour STS injury
- STS injury, cellular ATP levels (GLO-Viability Assay) [6, 8]: significantly reduced 24 hour STS injury
- STS injury, live-cell protease activity (CellTiter-Fluor) [6, 8]: significantly reduced 24 hour STS injury
- STS injury, resazurin metabolism (CellTiter Blue) [6, 8]: significantly reduced 24 hour STS injury
- reduction in viability compared with non-injured controls ([6]; 250 nM STS 24 hours, AQ2S-treated neurons): 17.6%
- cell death after STS ([6]; 250 nM STS 24 hours, co-treatment 75 or 125 μM): significantly reduced cell death
- cell viability, comparison of neuroprotectants ([6]; 250 nM STS co-administered 24 hours): increased cell viability
- neuronal viability, high dose STS ([6]; 500 nM STS 24 hours, co-treatment 125 μM and 150 μM): significantly (but only slightly) increased neuronal viability
- baseline viability or cytotoxicity ([6]; compound alone, no STS, 75 μM, 24 h): did not significantly alter baseline viability or cytotoxicity
- concentration of maximal protection ([6]; neuroprotection in neuron injury assays): 75 to 125 µM
- pAKT473 ([7]; 250 nM STS 6 hours, AQ2S): marginally increased STS-induced pAKT473 at the 6-hour time point, but did not reach statistical significance
- pAKT473 ([7]; 250 nM STS 21 hours, 125 μM AQ2S): pAKT473 increased in the presence of AQ2S
- AKT activity (pAKT473) ([7]; 125 μM, 17 hours STS injury): significant elevation in AKT activity
- ratio of pAKT473/AKT ([7]; 125 μM, 17 hours STS injury): highest in the AQ2S treated group
- AKT total ([7]; non-injury, 125 μM): No effect on AKT total was observed
- pAKT473 ([7]; non-injury, 125 μM, 4 hours): significant (but modest) rise in pAKT473
- pAKT473 ([7]; non-injury, 125 μM, 24 hours): not significant at 24 hours
